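In this assay, cells in 96-well plates receive the compound at five concentrations for 48 hours. Endpoints are linearly interpolated between the surrounding concentrations. GI50 marks 50% less growth.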 Active and inactive are the calls of the source. Rule as the data show it: active = GI50 up to about 1.1 µM and inactive = higher.
Experiments:
Experiment in all cases: growth of human tumour cells (NCI), 48 h
786-0 = tested on: 786-0
A498 = tested on: A498
COLO 205 = tested on: COLO 205
EKVX = tested on: EKVX
HOP-92 = tested on: HOP-92
HT-29 = tested on: HT-29
Malme-3M = tested on: Malme-3M
NCI-H460 = tested on: NCI-H460
OVCAR-5 = tested on: OVCAR-5
OVCAR-8 = tested on: OVCAR-8
SF-295 = tested on: SF-295
TK-10 = tested on: TK-10
M14 = tested on: M14
NCI-H226 = tested on: NCI-H226
SN12C = tested on: SN12C
SNB-19 = tested on: SNB-19

Measured: GI50

Cc1ccc2c(c1)-c1c3c(nn1C)-c1ccccc1SC3O2 (configuration not stated)
inactive: 786-0 > 100 µM | A498 49.7 µM | COLO 205 75.5 µM | EKVX 44.5 µM | HOP-92 27 µM | HT-29 41.6 µM | Malme-3M > 100 µM | NCI-H460 65.8 µM | OVCAR-5 > 100 µM | OVCAR-8 39.6 µM | SF-295 83.8 µM | TK-10 > 100 µM

[O-][S+](Cc1ccccc1)c1nc2ccccc2nc1-c1cccs1 (configuration not stated)
inactive: 786-0 11.3 µM | COLO 205 20 µM | EKVX 27.5 µM | HOP-92 15.6 µM | HT-29 11.7 µM | M14 11 µM | Malme-3M 6.18 µM | NCI-H226 4.06 µM | NCI-H460 20 µM | OVCAR-5 17.6 µM | OVCAR-8 13.7 µM | SF-295 24.7 µM | SN12C 14 µM | SNB-19 18.2 µM | TK-10 14.3 µM

Cc1cc2c(=O)cc(-c3ccc(O)cc3)oc2c(C(=O)O)c1C
inactive: 786-0 > 100 µM | COLO 205 > 100 µM | EKVX > 100 µM | HOP-92 > 100 µM | HT-29 > 100 µM | M14 > 100 µM | Malme-3M > 100 µM | NCI-H226 > 100 µM | NCI-H460 > 100 µM | OVCAR-5 > 100 µM | OVCAR-8 > 100 µM | SF-295 > 100 µM | SN12C > 100 µM | SNB-19 > 100 µM | TK-10 > 100 µM

CCCCC(C(=O)C(=O)Nc1ccccc1CC)C(=O)C(C)C (configuration not stated)
inactive: 786-0 > 100 µM | A498 > 100 µM | COLO 205 > 100 µM | EKVX > 100 µM | HOP-92 > 100 µM | HT-29 > 100 µM | M14 > 100 µM | Malme-3M > 100 µM | NCI-H226 > 100 µM | NCI-H460 > 100 µM | OVCAR-5 > 100 µM | OVCAR-8 > 100 µM | SF-295 > 100 µM | SN12C > 100 µM | SNB-19 > 100 µM | TK-10 > 100 µM

Cc1ccc(-c2cc(-c3ccco3)nc(N)n2)o1
inactive: 786-0 > 100 µM | COLO 205 > 100 µM | EKVX 65.2 µM | HT-29 > 100 µM | M14 > 100 µM | Malme-3M > 100 µM | NCI-H226 > 100 µM | NCI-H460 > 100 µM | OVCAR-5 > 100 µM | OVCAR-8 > 100 µM | SF-295 > 100 µM | SN12C > 100 µM | SNB-19 > 100 µM | TK-10 > 100 µM

O=C1C2=C(c3ccccc31)C(c1ccccc1Cl)N1C(=O)CCSC1=N2 (configuration not stated)
inactive: 786-0 > 100 µM | A498 > 100 µM | COLO 205 > 100 µM | EKVX > 100 µM | HOP-92 30.1 µM | HT-29 > 100 µM | M14 > 100 µM | Malme-3M > 100 µM | NCI-H226 > 100 µM | OVCAR-5 > 100 µM | OVCAR-8 > 100 µM | SF-295 > 100 µM | SN12C 89.9 µM | SNB-19 > 100 µM | TK-10 > 100 µM

CCCCCCCCCCCCCCCC(=O)OCC1OC(N2C(=O)/C(=N\NC(N)=S)c3ccc([N+](=O)[O-])cc32)C(OC(C)=O)C1OC(C)=O (configuration not stated)
inactive: 786-0 > 100 µM | COLO 205 37.1 µM | EKVX 39.4 µM | HOP-92 93.5 µM | HT-29 > 100 µM | M14 62.2 µM | Malme-3M > 100 µM | NCI-H226 > 100 µM | NCI-H460 > 100 µM | OVCAR-5 > 100 µM | OVCAR-8 52.1 µM | SF-295 > 100 µM | SN12C > 100 µM | SNB-19 > 100 µM | TK-10 > 100 µM

COc1cc(OC)c2c(=O)c3cccc([N+](=O)[O-])c3n(C)c2c1
inactive: 786-0 > 100 µM | COLO 205 > 100 µM | EKVX > 100 µM | HT-29 > 100 µM | M14 > 100 µM | Malme-3M > 100 µM | OVCAR-8 > 100 µM | SF-295 > 100 µM | SN12C 95.3 µM | SNB-19 > 100 µM | TK-10 > 100 µM

CCOC(=O)C/N=c1\nc(SC)sc2c(C(=O)OCC)nc(Sc3ccccc3)n12
inactive: 786-0 21.6 µM | COLO 205 > 100 µM | EKVX 45.1 µM | HOP-92 20.8 µM | HT-29 > 100 µM | M14 > 100 µM | Malme-3M 32.6 µM | NCI-H226 26 µM | OVCAR-5 > 100 µM | OVCAR-8 39.3 µM | SN12C 91.4 µM | TK-10 25.9 µM

CC1=C(C)C(=O)c2c(cc3c4ccccc4ccn23)C1=O
inactive: 786-0 > 100 µM | COLO 205 > 100 µM | EKVX > 100 µM | HT-29 > 100 µM | M14 > 100 µM | Malme-3M > 100 µM | NCI-H226 > 100 µM | NCI-H460 > 100 µM | OVCAR-8 > 100 µM | SF-295 > 100 µM | SN12C > 100 µM | SNB-19 > 100 µM | TK-10 > 100 µM

CC/C(=C(\c1ccccc1)c1ccc(OCC[N+](C)(C)C)cc1)c1ccccc1 [TAMOXIFEN METHYL IODIDE]
inactive: 786-0 13.7 µM | A498 19 µM | COLO 205 5.31 µM | EKVX 15.6 µM | HT-29 14.6 µM | M14 14.7 µM | Malme-3M 12.8 µM | NCI-H226 10.2 µM | NCI-H460 17.1 µM | OVCAR-8 15.3 µM | SF-295 16.9 µM | SN12C 9.16 µM | SNB-19 17.4 µM

O=C1OC(O)c2cc3c(cc21)OCO3 (configuration not stated)
inactive: 786-0 > 100 µM | A498 > 100 µM | COLO 205 > 100 µM | EKVX > 100 µM | HOP-92 > 100 µM | HT-29 > 100 µM | M14 > 100 µM | Malme-3M > 100 µM | NCI-H460 > 100 µM | OVCAR-8 > 100 µM | SF-295 > 100 µM | SN12C > 100 µM | SNB-19 > 100 µM | TK-10 > 100 µM

CCN(CC)c1ccc(Cl)c2c1C(O)(C(C)C)C2(C)C (configuration not stated)
inactive: 786-0 14.5 µM | A498 21.3 µM | COLO 205 15.2 µM | HT-29 11.8 µM | M14 16.4 µM | Malme-3M 13.9 µM | NCI-H226 16.5 µM | NCI-H460 13.4 µM | OVCAR-5 16.6 µM | OVCAR-8 18.9 µM | SF-295 18.9 µM | SN12C 16.7 µM | SNB-19 15.2 µM | TK-10 16.6 µM

Nc1nc2c3nc(Nc4ccccc4)sc3nc(=S)n2c2sc(Nc3ccccc3)nc12
inactive: 786-0 73.8 µM | A498 > 100 µM | COLO 205 > 100 µM | EKVX > 100 µM | HOP-92 4.66 µM | HT-29 > 100 µM | M14 > 100 µM | Malme-3M 47.4 µM | NCI-H226 > 100 µM | OVCAR-8 15.2 µM | SF-295 > 100 µM | SN12C 65.5 µM | SNB-19 40.1 µM

Source: ChEMBL document CHEMBL1201862, “PubChem BioAssay data set” (2004)
